“And” between values parts separate entries of the source, which are not always exact repeats. Equal values may be shown once. “Also recorded” adds a separate entry of the source. Non-standard residues stand in square brackets, D forms with d. Residues, ends and D or L forms follow the SMILES beside them. pGlu = O=C1CC[C@@H](C(=O)O)N1
What was measured:
[1] = test system: release of FSH; assay: Release of FSH in rats after sc injection; assay type: in vivo; conditions: for release of FSH: in our assays
From the text: (§1) The data on the release of LH and FSH in rats by modifications of LHRH with one structural change are in Table II.
(§2) Exclusive of the salmon-LHRH, only one of the six decapeptides with two structural changes had significant activity.

[2] = test system: rat anterior pituitary cells in primary culture; conditions: cited from earlier work; for activity (potency) to release LH relative to P/O LHRH: in vitro, rat pituitary cells, Sherwood et al. (a), Miyamoto et al. (b); for activities to release LH compared with LHRH (Table I): fraction of the activities of LHRH or words
[3] = test system: release of LH; assay: Release of LH in rats after sc injection; assay type: in vivo; conditions: for release of LH compared with LHRH: sc injection, dose and time as stated in the source; for release of LH: in our assays
From the text: as §1, §2

[4] = test system: rat pituitary cells; conditions: cited from earlier work; for activity to release FSH relative to P/O LHRH: in vitro, rat pituitary cells, Miyamoto et al. (b); for activities to release FSH compared with LHRH (Table I): fraction of the activities of LHRH or words
[5] = test system: release of FSH; conditions: comparison with purified hypothalamic fractions; cited from earlier work
[6] = test system: release of FSH; assay: Release of FSH in rats after sc injection; assay type: in vivo; conditions: dose and time as stated in the source
[7] = biological target: T1, receptor identified with LHRH (Rattus norvegicus, UniProt P30969); assay: Radio receptor assay (RRA) with 125I-D-Lys6-LHRH as ligand; assay type: binding; conditions: relative to LHRH
T1 construct: in tissue there is very likely a different receptor; from tissue
T1 sequence (P30969 1-327): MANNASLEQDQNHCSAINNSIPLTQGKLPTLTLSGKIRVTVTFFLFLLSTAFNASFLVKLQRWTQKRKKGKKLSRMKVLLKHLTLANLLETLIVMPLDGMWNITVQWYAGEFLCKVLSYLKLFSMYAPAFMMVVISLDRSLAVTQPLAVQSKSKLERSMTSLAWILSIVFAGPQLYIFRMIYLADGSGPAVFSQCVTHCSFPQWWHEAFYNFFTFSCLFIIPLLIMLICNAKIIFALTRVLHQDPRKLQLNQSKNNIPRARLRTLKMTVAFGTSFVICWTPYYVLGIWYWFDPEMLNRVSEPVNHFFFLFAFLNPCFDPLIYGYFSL
From the text: Data are included in Table II, III, IV and V from radio receptor assays as described by Heber et al. (Am. J. Physiol. […]: E227-E230 (1978)).
For the radio receptor assay, labelled ^125 I-D-Lys^6 -LHRH, was utilized as the ligand. The results are expressed as the relative inhibitory binder of the analog to LHRH at ID50 values.

[8] = test system: release of LH; conditions: at 1000 and 5000 ng; cited from earlier work
[9] = test system: release of FSH; conditions: at 1000 and 5000 ng; cited from earlier work
[10] = 15 min. after sc injection, 50 ng, LHRH = 100
[11] = 15 min. after sc injection, 100 ng, LHRH = 100
[12] = 15 min. after sc injection, 100 ng, experiment marked *
[13] = 15 min. after sc injection, 100 ng, experiment marked *, LHRH* = 100
[14] = 15 min. after sc injection, 1000 ng, LHRH = 100
[15] = 15 min. after sc injection, 1000 ng, experiment marked *
[16] = 30 min. after sc injection, 50 ng, LHRH = 100
[17] = 30 min. after sc injection, 100 ng, LHRH = 100
[18] = 30 min. after sc injection, 1000 ng, LHRH = 100
[19] = 60 min. after sc injection, 300 ng, LHRH = 100
[20] = 60 min. after sc injection, 3000 ng, LHRH = 100
[21] = release 15 min. after sc injection, dosage of peptide 50 ng
[22] = release 15 min. after sc injection, dosage of peptide 100 ng
[23] = release 15 min. after sc injection, dosage of peptide 1000 ng
[24] = release 30 min. after sc injection, dosage of peptide 50 ng
[25] = release 30 min. after sc injection, dosage of peptide 100 ng
[26] = release 30 min. after sc injection, dosage of peptide 1000 ng
[27] = release 60 min. after sc injection, dosage of peptide 300 ng
[28] = release 60 min. after sc injection, dosage of peptide 3000 ng

Structure (SMILES): CC(C)C[C@H](NC(=O)CNC(=O)[C@H](Cc1ccc(O)cc1)NC(=O)[C@H](CO)NC(=O)[C@H](Cc1c[nH]c2ccccc12)NC(=O)[C@H](Cc1c[nH]cn1)NC(=O)[C@@H]1CCC(=O)N1)C(=O)N[C@@H](CCCNC(=N)N)C(=O)N1CCC[C@H]1C(=O)NCC(N)=O [LHRH, pGlu--His--Trp--Ser--Tyr--Gly--Leu--Arg--Pro--Gly--NH2, reference compound]
- FSH % change [1, 10]: 100%
- FSH % change [1, 11]: 100%
- FSH [1, 12]: 455 ng/mL
- FSH % change [1, 13]: 100%
- FSH % change [1, 14]: 100%
- FSH [1, 15]: 576 ng/mL
- FSH % change [1, 16]: 100%
- FSH % change [1, 17]: 100%
- FSH % change [1, 18]: 100%
- FSH % change [1, 19]: 100%
- FSH % change [1, 20]: 100%
- FSH [1, 21]: 550 ng/mL
- FSH [1, 22]: 465 ng/mL
- FSH [1, 23]: 483 ng/mL
- FSH [1, 24]: 515 ng/mL
- FSH [1, 25]: 494 ng/mL and 434 ng/mL
- FSH [1, 26]: 691 ng/mL and 1010 ng/mL
- FSH [1, 27]: 596 ng/mL and 554 ng/mL
- FSH [1, 28]: 1173 ng/mL and 1501 ng/mL
- activity (potency) to release LH relative to P/O LHRH [2]: 100%
- LH % change [3, 10]: 100%
- LH % change [3, 11]: 100%
- LH [3, 12]: 21 ng/mL
- LH % change [3, 13]: 100%
- LH % change [3, 14]: 100%
- LH [3, 15]: 39 ng/mL
- LH % change ([3]; 15 min. after sc injection, 1000 ng, experiment marked *, LHRH* = 100): 100%
- LH % change [3, 16]: 100%
- LH % change [3, 17]: 100%
- LH % change [3, 18]: 100%
- LH % change [3, 19]: 100%
- LH % change [3, 20]: 100%
- LH [3, 21]: 16 ng/mL
- LH [3, 22]: 24 ng/mL
- LH [3, 23]: 57 ng/mL
- LH [3, 24]: 18 ng/mL
- LH [3, 25]: 11 ng/mL
- LH [3, 27]: 11 ng/mL and 17 ng/mL
- LH [3, 28]: 82 ng/mL and 113 ng/mL
- activity to release FSH relative to P/O LHRH [4]: 100%
- FSH released [5]: ca. 18,000 ng/ml

Structure (SMILES): NC(=O)CC[C@H](NC(=O)[C@H](Cc1c[nH]c2ccccc12)NC(=O)CNC(=O)[C@H](Cc1c[nH]cn1)NC(=O)[C@H](CO)NC(=O)[C@H](Cc1c[nH]c2ccccc12)NC(=O)[C@H](Cc1c[nH]cn1)NC(=O)[C@@H]1CCC(=O)N1)C(=O)N1CCC[C@H]1C(=O)NCC(N)=O [[His^5 Trp^7 Gln^8]--LHRH, p-Glu His Trp Ser His Gly Trp Gln Pro Gly-NH2] ([pGlu]HWSHGWQPG-NH2)
- release of FSH compared with LHRH [6]: as much FSH at the higher dosage of 3000 ng as LHRH; also recorded: released equivalent levels of LH and FSH when monitored 15 minutes after injection; also recorded: released as much FSH as LHRH
- FSH % change [1, 19]: 68% and 67.8%
- FSH [1, 22]: 403 ng/mL
- FSH [1, 23]: 486 ng/mL
- FSH [1, 27]: 404 ng/mL
- FSH [1, 28]: 1161 ng/mL
- LH % change [3, 19]: 46%
- LH % change [3, 20]: 65%
- LH [3, 22]: 17 ng/mL
- LH [3, 23]: 66 ng/mL
- LH [3, 27]: 5 ng/mL
- LH [3, 28]: 53 ng/mL
- release of LH compared with LHRH [3]: released less LH; also recorded: released equivalent levels of LH and FSH when monitored 15 minutes after injection; also recorded: as effective at 100 ng as LHRH; also recorded: about two times as effective as [His^5, Trp^7 Leu^8 ]-LHRH
- level at which effectiveness in the radioreceptor assay for LHRH is achieved, times that of LHRH [7]: 46 times

Structure (SMILES): NC(=O)CNC(=O)[C@@H]1CCCN1C(=O)[C@H](Cc1ccc(O)cc1)NC(=O)[C@H](Cc1c[nH]c2ccccc12)NC(=O)CNC(=O)[C@H](Cc1c[nH]cn1)NC(=O)[C@H](CO)NC(=O)[C@H](Cc1c[nH]c2ccccc12)NC(=O)[C@H](Cc1c[nH]cn1)NC(=O)[C@@H]1CCC(=O)N1 [[His^5 Trp^7 Tyr^8] (Chicken II), pGlu--His--Trp--Ser--His--Gly--Trp--Tyr--Pro--Gly--NH2, reference compound] ([pGlu]HWSHGWYPG-NH2)
- FSH % change [1, 17]: 62%
- FSH % change [1, 19]: 58%
- FSH % change [1, 20]: 55%
- release of FSH ([1]; dose level 100 ng): 62%
- release of FSH ([1]; dose level 1000 ng): 86%
- FSH [1, 25]: 305 ng/mL
- FSH [1, 26]: 596 ng/mL
- FSH [1, 27]: 344 ng/mL
- FSH [1, 28]: 644 ng/mL
- activities to release LH compared with LHRH (Table I) [2]: about 1/3
- activity (potency) to release LH relative to P/O LHRH [2]: 32%
- LH % change [3, 17]: 18%
- LH % change [3, 18]: 39%
- LH % change [3, 19]: 32%
- LH % change [3, 20]: 10%
- release of LH ([3]; dose level 100 ng): 18%
- release of LH ([3]; dose level 1000 ng): 30%
- LH [3, 25]: 2 ng/mL
- LH [3, 26]: 14 ng/mL
- LH [3, 27]: 3.5 ng/mL
- LH [3, 28]: 8.4 ng/mL
- activities to release FSH compared with LHRH (Table I) [4]: about 1/3
- activity to release FSH relative to P/O LHRH [4]: 41%

Structure (SMILES): CC(C)C[C@H](NC(=O)CNC(=O)[C@H](Cc1ccc(O)cc1)NC(=O)[C@H](CO)NC(=O)[C@H](Cc1c[nH]c2ccccc12)NC(=O)[C@H](Cc1c[nH]cn1)NC(=O)[C@@H]1CCC(=O)N1)C(=O)N[C@@H](CC(C)C)C(=O)N1CCC[C@H]1C(=O)NCC(N)=O [[Leu^8]--LHRH, p-Glu His Trp Ser Tyr Gly Leu Leu Pro Gly-NH2, reference compound]
- activity for LH release [8]: Inactive
- release of FSH compared with LHRH ([1]; sc injection, dose and time as stated in the source): relatively low activities
- activity for FSH release [9]: Inactive
- release of LH compared with LHRH [3]: relatively low activities

Structure (SMILES): CC(C)C[C@H](NC(=O)[C@H](Cc1c[nH]c2ccccc12)NC(=O)CNC(=O)[C@H](Cc1ccc(O)cc1)NC(=O)[C@H](CO)NC(=O)[C@H](Cc1c[nH]c2ccccc12)NC(=O)[C@H](Cc1c[nH]cn1)NC(=O)[C@@H]1CCC(=O)N1)C(=O)N1CCC[C@H]1C(=O)NCC(N)=O [[Trp^7 Leu^8]--LHRH, pGlu--His--Trp--Ser--Tyr--Gly--Trp--Leu--Pro--Gly--NH2, reference compound] ([pGlu]HWSYGWLPG-NH2)
- FSH % change [1, 20]: 22%
- FSH [1, 28]: 258 ng/mL
- activities to release LH compared with LHRH (Table I) [2]: extremely low activities
- activity (potency) to release LH relative to P/O LHRH [2]: 2-3%
- LH % change [3, 20]: 3.0%
- LH [3, 28]: 2.5 ng/mL
- activities to release FSH compared with LHRH (Table I) [4]: extremely low activities
